Results published in PubChem BioAssay (NCI).
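Test compounds were applied to cells in 96-well plates for 48 hours at 5 doses. GI50 = concentration required for 50% inhibition of growth. At the TGI there is no net growth.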

Key:
Assay in all cases: NCI-60 cell line screen, 48 h
A549 NSCLC = test system: A549 NSCLC
MCF7 breast = test system: MCF7 breast
SK-MEL-28 melanoma = test system: SK-MEL-28 melanoma
EKVX NSCLC = test system: EKVX NSCLC
NCI-H522 lung = test system: NCI-H522 lung
BT-549 breast = test system: BT-549 breast
HCT-15 colon = test system: HCT-15 colon
NCI-H23 lung = test system: NCI-H23 lung
OVCAR-8 ovarian = test system: OVCAR-8 ovarian
MOLT-4 leukemia = test system: MOLT-4 leukemia
ACHN renal = test system: ACHN renal
T-47D breast = test system: T-47D breast
HCT-116 colon = test system: HCT-116 colon
RXF 393 renal = test system: RXF 393 renal
HCC-2998 colon = test system: HCC-2998 colon
HOP-92 NSCLC = test system: HOP-92 NSCLC
SNB-75 CNS = test system: SNB-75 CNS
SK-OV-3 ovarian = test system: SK-OV-3 ovarian
SF-539 CNS = test system: SF-539 CNS
U251 CNS = test system: U251 CNS
SK-MEL-2 melanoma = test system: SK-MEL-2 melanoma
786-0 renal = test system: 786-0 renal
M14 melanoma = test system: M14 melanoma
DU-145 prostate = test system: DU-145 prostate
NCI-H226 lung = test system: NCI-H226 lung
SF-268 CNS = test system: SF-268 CNS
MDA-MB-231 breast = test system: MDA-MB-231 breast
K-562 leukemia = test system: K-562 leukemia
OVCAR-5 ovarian = test system: OVCAR-5 ovarian
IGROV1 ovarian = test system: IGROV1 ovarian
OVCAR-3 ovarian = test system: OVCAR-3 ovarian
SW-620 colon = test system: SW-620 colon
NCI-H460 lung = test system: NCI-H460 lung
A498 renal = test system: A498 renal
UACC-62 melanoma = test system: UACC-62 melanoma
OVCAR-4 ovarian = test system: OVCAR-4 ovarian
CCRF-CEM leukemia = test system: CCRF-CEM leukemia
SNB-19 CNS = test system: SNB-19 CNS
HS 578T breast = test system: HS 578T breast
TK-10 renal = test system: TK-10 renal
SF-295 CNS = test system: SF-295 CNS
SN12C renal = test system: SN12C renal
CAKI-1 renal = test system: CAKI-1 renal
HL-60(TB) leukemia = test system: HL-60(TB) leukemia
UACC-257 melanoma = test system: UACC-257 melanoma
SK-MEL-5 melanoma = test system: SK-MEL-5 melanoma
RPMI-8226 leukemia = test system: RPMI-8226 leukemia
COLO 205 colon = test system: COLO 205 colon
KM12 colon = test system: KM12 colon
HT29 colon = test system: HT29 colon
UO-31 renal = test system: UO-31 renal
LOX IMVI melanoma = test system: LOX IMVI melanoma
MALME-3M melanoma = test system: MALME-3M melanoma
NCI/ADR-RES ovarian = test system: NCI/ADR-RES ovarian
HOP-62 NSCLC = test system: HOP-62 NSCLC
PC-3 prostate = test system: PC-3 prostate
SR leukemia = test system: SR leukemia
MDA-MB-435 = test system: MDA-MB-435

**Q.** What does the source list for `N#C/C(=C\c1c(-c2ccccc2)[nH]c2ccccc12)C(=O)c1ccc(Cl)cc1`?
**A.** GI50 (A549 NSCLC): 8.44 µM; TGI (A549 NSCLC): > 68.8 µM; GI50 (MCF7 breast): 0.753 µM; TGI (MCF7 breast): 14.5 µM; GI50 (SK-MEL-28 melanoma): 3.33 µM; TGI (SK-MEL-28 melanoma): 41.2 µM; GI50 (EKVX NSCLC): 5.51 µM; TGI (EKVX NSCLC): > 100 µM; GI50 (NCI-H522 lung): 2.89 µM; TGI (NCI-H522 lung): > 30 µM; GI50 (BT-549 breast): 5.83 µM; TGI (BT-549 breast): 79.7 µM; GI50 (HCT-15 colon): 1.38 µM; TGI (HCT-15 colon): > 100 µM; GI50 (NCI-H23 lung): 3.71 µM; TGI (NCI-H23 lung): 38.5 µM; GI50 (OVCAR-8 ovarian): 6.16 µM; TGI (OVCAR-8 ovarian): > 47.9 µM; GI50 (MOLT-4 leukemia): 1.01 µM; TGI (MOLT-4 leukemia): 8.87 µM; GI50 (ACHN renal): 6.69 µM; TGI (ACHN renal): > 55 µM; GI50 (T-47D breast): 2.89 µM; TGI (T-47D breast): 18.4 µM; GI50 (HCT-116 colon): 0.68 µM; TGI (HCT-116 colon): 23.9 µM; GI50 (RXF 393 renal): 19.5 µM; TGI (RXF 393 renal): > 100 µM; GI50 (HCC-2998 colon): 2.11 µM; TGI (HCC-2998 colon): 19.5 µM; GI50 (HOP-92 NSCLC): 3.35 µM; TGI (HOP-92 NSCLC): 22.1 µM; GI50 (SNB-75 CNS): 1.43 µM; TGI (SNB-75 CNS): 8.7 µM; GI50 (SK-OV-3 ovarian): 3.02 µM; TGI (SK-OV-3 ovarian): 14.8 µM; GI50 (SF-539 CNS): 0.715 µM; TGI (SF-539 CNS): 3.99 µM; GI50 (U251 CNS): 1.11 µM; TGI (U251 CNS): 16.2 µM; GI50 (SK-MEL-2 melanoma): 7.09 µM; TGI (SK-MEL-2 melanoma): > 39.3 µM; GI50 (786-0 renal): 5.53 µM; TGI (786-0 renal): 23.5 µM; GI50 (M14 melanoma): 0.725 µM; TGI (M14 melanoma): > 100 µM; GI50 (DU-145 prostate): 3.54 µM; TGI (DU-145 prostate): 16.7 µM; GI50 (NCI-H226 lung): 7.5 µM; TGI (NCI-H226 lung): 47.2 µM; GI50 (SF-268 CNS): 4.55 µM; TGI (SF-268 CNS): 24.8 µM; GI50 (MDA-MB-231 breast): 4.09 µM; TGI (MDA-MB-231 breast): 47.8 µM; GI50 (K-562 leukemia): 0.336 µM; TGI (K-562 leukemia): 5.32 µM; GI50 (OVCAR-5 ovarian): 8.58 µM; TGI (OVCAR-5 ovarian): 46.9 µM; GI50 (IGROV1 ovarian): 4.65 µM; TGI (IGROV1 ovarian): 41.5 µM; GI50 (OVCAR-3 ovarian): 1.52 µM; TGI (OVCAR-3 ovarian): 4.65 µM; GI50 (SW-620 colon): 0.554 µM; TGI (SW-620 colon): > 100 µM; GI50 (NCI-H460 lung): 1.02 µM; TGI (NCI-H460 lung): 11.6 µM; GI50 (A498 renal): 2.82 µM; TGI (A498 renal): 14.7 µM; GI50 (UACC-62 melanoma): 1.46 µM; TGI (UACC-62 melanoma): 33.9 µM; GI50 (OVCAR-4 ovarian): 3.68 µM; TGI (OVCAR-4 ovarian): 22.8 µM; GI50 (CCRF-CEM leukemia): 2.48 µM; TGI (CCRF-CEM leukemia): > 100 µM; GI50 (SNB-19 CNS): 3.07 µM; TGI (SNB-19 CNS): 20.2 µM; GI50 (HS 578T breast): 1.56 µM; TGI (HS 578T breast): 9.27 µM; GI50 (TK-10 renal): 8.6 µM; TGI (TK-10 renal): 43.8 µM; GI50 (SF-295 CNS): 2.18 µM; TGI (SF-295 CNS): 16.4 µM; GI50 (SN12C renal): 6.91 µM; TGI (SN12C renal): > 78.7 µM; GI50 (CAKI-1 renal): 1.23 µM; TGI (CAKI-1 renal): > 31.2 µM; GI50 (HL-60(TB) leukemia): 0.385 µM; TGI (HL-60(TB) leukemia): 3.17 µM; GI50 (UACC-257 melanoma): 30.2 µM; TGI (UACC-257 melanoma): > 87.3 µM; GI50 (SK-MEL-5 melanoma): 0.782 µM; TGI (SK-MEL-5 melanoma): 12.5 µM; GI50 (RPMI-8226 leukemia): 1.32 µM; TGI (RPMI-8226 leukemia): 20 µM; GI50 (COLO 205 colon): 0.814 µM; TGI (COLO 205 colon): 5.43 µM; GI50 (KM12 colon): 0.735 µM; TGI (KM12 colon): 23.6 µM; GI50 (HT29 colon): 0.476 µM; TGI (HT29 colon): 21.4 µM; GI50 (UO-31 renal): 5.85 µM; TGI (UO-31 renal): 36.3 µM; GI50 (LOX IMVI melanoma): 4.76 µM; TGI (LOX IMVI melanoma): > 100 µM; GI50 (MALME-3M melanoma): 3.61 µM; TGI (MALME-3M melanoma): 30.2 µM; GI50 (NCI/ADR-RES ovarian): 0.575 µM; TGI (NCI/ADR-RES ovarian): 12.6 µM; GI50 (HOP-62 NSCLC): 5.41 µM; TGI (HOP-62 NSCLC): 26 µM; GI50 (PC-3 prostate): 3.42 µM; TGI (PC-3 prostate): > 70.3 µM

**Q.** What does the source list for `S=C(NNC1=NCCCN1)Nc1ccccc1`?
**A.** TGI (A549 NSCLC): > 100 µM; TGI (MCF7 breast): > 100 µM; TGI (SK-MEL-28 melanoma): > 100 µM; TGI (EKVX NSCLC): > 100 µM; TGI (NCI-H522 lung): > 100 µM; TGI (BT-549 breast): > 100 µM; TGI (HCT-15 colon): > 100 µM; TGI (NCI-H23 lung): > 100 µM; TGI (OVCAR-8 ovarian): > 100 µM; TGI (MOLT-4 leukemia): > 100 µM; TGI (ACHN renal): > 100 µM; TGI (T-47D breast): > 100 µM; TGI (HCT-116 colon): > 100 µM; TGI (RXF 393 renal): > 100 µM; TGI (SR leukemia): > 100 µM; TGI (HCC-2998 colon): > 100 µM; TGI (HOP-92 NSCLC): > 100 µM; TGI (SNB-75 CNS): > 100 µM; TGI (SK-OV-3 ovarian): > 100 µM; TGI (SF-539 CNS): > 100 µM; TGI (U251 CNS): > 100 µM; TGI (SK-MEL-2 melanoma): > 100 µM; TGI (786-0 renal): > 100 µM; TGI (NCI-H226 lung): > 100 µM; TGI (SF-268 CNS): > 100 µM; TGI (K-562 leukemia): > 100 µM; TGI (OVCAR-5 ovarian): > 100 µM; TGI (IGROV1 ovarian): > 100 µM; TGI (OVCAR-3 ovarian): > 100 µM; TGI (SW-620 colon): > 100 µM; TGI (NCI-H460 lung): > 100 µM; TGI (A498 renal): > 100 µM; TGI (UACC-62 melanoma): > 100 µM; TGI (OVCAR-4 ovarian): > 100 µM; TGI (CCRF-CEM leukemia): > 100 µM; TGI (SNB-19 CNS): > 100 µM; TGI (HS 578T breast): > 100 µM; TGI (TK-10 renal): > 100 µM; TGI (SF-295 CNS): > 100 µM; TGI (CAKI-1 renal): > 100 µM; TGI (HL-60(TB) leukemia): > 100 µM; TGI (UACC-257 melanoma): > 100 µM; TGI (SK-MEL-5 melanoma): > 100 µM; TGI (MDA-MB-435): > 100 µM; TGI (RPMI-8226 leukemia): 79 µM; TGI (COLO 205 colon): > 100 µM; TGI (KM12 colon): > 100 µM; TGI (HT29 colon): > 100 µM; TGI (UO-31 renal): > 100 µM; TGI (LOX IMVI melanoma): > 100 µM; TGI (MALME-3M melanoma): > 100 µM; TGI (NCI/ADR-RES ovarian): > 100 µM; TGI (HOP-62 NSCLC): > 100 µM; TGI (PC-3 prostate): > 100 µM
